Assay results published in US20230096028A1, “BICYCLIC HETEROCYCLYL COMPOUNDS AND USES THEREOF” (Revolution Medicines, Inc., priority 2019, published 2023).
Read-outs that look alike come from different tables or passages of the source.

Key:
[1] = test system: PC-9 cells (EGFR Ex19Del); assay: Potency Assay: pERK (SOS1 pERK IC50 Assay, AlphaLISA SureFire Ultra p-ERK1/2); format: cell-based; conditions: Homo sapiens, read-out: SOS1 pERK IC50
Procedure, shortened: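 PC-9 (EGFR Ex19Del) cells plated overnight, then treated 1 h at 37° C. with 10-point 3-fold dilutions (top 10 μM final) in duplicate. Lysate pERK1/2 measured by AlphaLISA SureFire Ultra; IC50 from 4-parameter sigmoidal fit.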

[2] = target: T1, SOS1 catalytic domain (residues 564-1049) (Homo sapiens, UniProt Q07889); assay: Potency Assay: binding affinity to SOS1 using Surface Plasmon Resonance (SPR); set-up: SOS1 catalytic domain (residues 564-1049) immobilized on a sensor chip; conditions: immobilized SOS1 catalytic domain (residues 564-1049), read-out: SOS1 SPR Equilibrium Kd
T1 sequence (Q07889 564-1049): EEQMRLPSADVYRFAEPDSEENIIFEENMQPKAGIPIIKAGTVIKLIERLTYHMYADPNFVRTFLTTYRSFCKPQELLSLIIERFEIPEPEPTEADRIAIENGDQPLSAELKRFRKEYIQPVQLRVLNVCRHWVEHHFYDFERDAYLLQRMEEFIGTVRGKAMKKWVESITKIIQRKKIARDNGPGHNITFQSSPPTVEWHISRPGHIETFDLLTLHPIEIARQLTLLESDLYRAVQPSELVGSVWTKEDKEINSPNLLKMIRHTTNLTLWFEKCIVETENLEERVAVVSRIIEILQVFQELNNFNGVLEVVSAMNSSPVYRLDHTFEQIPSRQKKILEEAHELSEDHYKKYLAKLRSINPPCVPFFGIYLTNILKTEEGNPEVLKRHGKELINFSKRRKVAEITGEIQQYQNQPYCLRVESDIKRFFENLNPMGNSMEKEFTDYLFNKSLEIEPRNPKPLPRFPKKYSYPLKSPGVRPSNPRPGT
Procedure, shortened: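 Avi-tagged SOS1 catalytic domain captured on streptavidin chip (~6000 RU) in 0.01 M HEPES, 0.15 M NaCl, 0.05% P20. Compound dilution series flowed at 50 μL/min for association, then buffer for dissociation, with double reference subtraction. Kd derived from end-of-association binding response plotted against concentration.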

[3] = target: T1, SOS1 catalytic domain (residues 564-1049); assay: Mode of Action Assay: inhibition of SOS1 nucleotide exchange activity (SOS1 TR-FRET IC50 Assay)
[4] = PC-9 cells (EGFR Ex19Del), 1 hour incubation, AlphaLISA p-ERK1/2

Row | Compound | IC50 [1, 4] | Kd [2] | IC50 [3] | IC50 ([1]; PC-9, 1 h)
1 | C[C@@H](Nc1nc(Cl)nc2c1CN(C(=O)C1CCN(C)C1)C2)c1cc(N)cc(C(F)(F)F)c1 (stereo partly drawn) [Example 101] | < 1000 nM | < 400 nM | < 1000 nM | –
2 | C[C@@H](Nc1nc(Cl)nc2c1CN(S(=O)(=O)C1CNC1)CC2)c1cc(N)cc(C(F)(F)F)c1 [Example 451] | < 1000 nM | < 400 nM | < 1000 nM | –
3 | CNc1nc2c(c(N[C@H](C)c3cc(N)cc(C(F)(F)F)c3)n1)CN(C(=O)N1CCOCC1)C2 [Example 125, N4-[(1R)-1-[3-amino-5-(trifluoro-methyl)phenyl]ethyl]-N2-methyl-6-(morpholine-4-carbonyl)-5H,6H,7H-pyrrolo[3,4-d]pyrimidine-2,4-diamine] | < 1000 nM | < 400 nM | < 1000 nM | –
4 | C[C@@H](Nc1nc(Cl)nc2c1CN(C(=O)OC1CCOCC1)C2)c1cc(N)cc(C(F)(F)F)c1 [Example 115, oxan-4-yl 4-{[(1R)-1-[3-amino-5-(trifluoromethyl)phenyl]ethyl]amino}-2-chloro-5H,6H,7H-pyrrolo[3,4-d]pyrimidine-6-carboxylate] | – | < 400 nM | > 1000 nM | < 1000 nM
5 | COc1cccnc1C(=O)N1CCc2nc(Cl)nc(N[C@H](C)c3cc(N)cc(C(F)(F)F)c3)c2C1 [Example 232] | > 1000 nM | > 400 nM | > 1000 nM | –
6 | C[C@@H](Nc1nc(Cl)nc2c1CN(C(=O)N1CCOCC1)C2)c1cccc(C(C)(C)C#N)c1 [Example 482, 2-{3-[(1R)-1-{[2-chloro-6-(morpholine-4-carbonyl)-5H,6H,7H-pyrrolo[3,4-d]pyrimidin-4-yl]amino}ethyl]phenyl}-2-methylpropanenitrile] | – | > 400 nM | < 1000 nM | > 1000 nM
7 | COC(=O)N1C[C@@H]2COC[C@]2(C(=O)N2CCc3nc(Cl)nc(N[C@H](C)c4cc(N)cc(C(F)(F)F)c4)c3C2)C1 [Example 221] | > 1000 nM | > 400 nM | < 1000 nM | –
8 | C[C@@H](Nc1nc(Cl)nc2c1CN(S(=O)(=O)N1CCNCC1)CC2)c1cc(N)cc(C(F)(F)F)c1 [Example 183] | < 1000 nM | < 400 nM | < 1000 nM | –
9 | Cc1c(C(C)Nc2nc(Cl)nc3c2CN(C(=O)N2CCOCC2)C3)cccc1C(F)(F)CO (stereo not drawn) [Example 507, 2-[3-(1-{[2-chloro-6-(morpholine-4-carbonyl)-5H,6H,7H-pyrrolo[3,4-d]pyrimidin-4-yl]amino}ethyl)-2-methylphenyl]-2,2-difluoroethan-1-ol] | > 1000 nM | < 400 nM | < 1000 nM | –
10 | C[C@@H](Nc1nc(Cl)nc2c1CN(C(=O)C1(O)COC1)C2)c1cccc(C(F)F)c1F [Example 300] | < 1000 nM | < 400 nM | < 1000 nM | –
11 | C[C@@H](Nc1nc(Cl)nc2c1CN(C(=O)N1CCOCC1)C2)c1cccc(C(F)(F)F)c1F [Example 496] | < 1000 nM | > 400 nM | < 1000 nM | –
12 | C[C@@H](Nc1nc(Cl)nc2c1CN(C(=O)C1(N)CCOCC1)C2)c1cccc(C(F)F)c1F [Example 287] | < 1000 nM | < 400 nM | < 1000 nM | –
13 | C[C@@H](Nc1nc(Cl)nc2c1CN(C(=O)[C@H]1CNCCO1)C2)c1cccc(C(F)F)c1F [Example 307] | < 1000 nM | < 400 nM | < 1000 nM | –
14 | COC1(C(=O)N2Cc3nc(CN)nc(N[C@H](C)c4cccc(C(F)(F)F)c4)c3C2)CCOCC1 [Example 350, (R)-(2-(aminomethyl)-4-((1-(3-(trifluoromethyl)phenyl)ethyl)amino)-5,7-dihydro-6H-pyrrolo[3,4-d]pyrimidin-6-yl)(4-methoxytetrahydro-2H-pyran-4-yl)methanone] | < 1000 nM | < 400 nM | < 1000 nM | –
15 | C[C@@H](Nc1nc(Cl)nc2c1CN(C(=O)N1CCC3(CCN3)CC1)C2)c1cccc(C(F)F)c1F [Example 390] | < 1000 nM | < 400 nM | < 1000 nM | –
16 | C[C@@H](Nc1nc(Cl)nc2c1CN(C(=O)c1cnc[nH]1)C2)c1cc(N)cc(C(F)(F)F)c1 [Example 108] | < 1000 nM | < 400 nM | < 1000 nM | –
17 | C[C@@H](Nc1nc(Cl)nc2c1CN(S(=O)(=O)C1CNC1)C2)c1cc(N)cc(C(F)(F)F)c1 [Example 48] | > 1000 nM | < 400 nM | < 1000 nM | –
18 | C[C@@H](Nc1nc(Cl)nc2c1CN(C(=O)c1csc(C3CCNCC3)n1)C2)c1cc(N)cc(C(F)(F)F)c1 [Example 92] | > 1000 nM | < 400 nM | > 1000 nM | –

Row | Compound | IC50 [1, 4] | Kd [2] | IC50 [3] | IC50 ([1]; PC-9, 1 h)
19 | C[C@@H](Nc1nc(Cl)nc2c1CC(C(=O)N1CCOCC1)CC2)c1cc(N)cc(C(F)(F)F)c1 (stereo partly drawn) [Example 165, N-[(1R)-1-[3-amino-5-(trifluoromethyl)phenyl]ethyl]-2-chloro-6-(morpholine-4-carbonyl)-5,6,7,8-tetrahydroquinazolin-4-amine] | < 1000 nM | < 400 nM | < 1000 nM | –
20 | COc1ncc(C(=O)N2Cc3nc(Cl)nc(N[C@H](C)c4cc(N)cc(C(F)(F)F)c4)c3C2)cn1 [Example 60] | < 1000 nM | < 400 nM | > 1000 nM | –
21 | CCC(Nc1nc(Cl)nc2c1CN(C(=O)N1CCOCC1)C2)c1cc(N)cc(C(F)(F)F)c1 (stereo not drawn) [Example 470, N-{1-[3-amino-5-(trifluoromethyl)phenyl]propyl}-2-chloro-6-(morpholine-4-carbonyl)-5H,6H,7H-pyrrolo[3,4-d]pyrimidin-4-amine] | – | > 400 nM | < 1000 nM | < 1000 nM
22 | C[C@@H](Nc1nc(Cl)nc2c1CN(C(=O)N1CCOCC1)C2)c1cccc(C(F)(F)C2COCCN2)c1 (stereo partly drawn) [Example 538, (2-chloro-4-(((1R)-1-(3-(difluoro(morpholin-3-yl)methyl)phenyl)ethyl)amino)-5,7-dihydro-6H-pyrrolo[3,4-d]pyrimidin-6-yl)(morpholino)methanone] | > 1000 nM | < 400 nM | < 1000 nM | –
23 | C[C@@H](Nc1nc(Cl)nc2c1CN(S(=O)(=O)CCO)CC2)c1cc(N)cc(C(F)(F)F)c1 [Example 457] | < 1000 nM | < 400 nM | < 1000 nM | –
24 | CNC1(C(=O)N2Cc3nc(Cl)nc(N[C@H](C)c4cccc(C(F)F)c4F)c3C2)CCOCC1 [Example 333] | < 1000 nM | < 400 nM | < 1000 nM | –
25 | C[C@@H](Nc1nc(Cl)nc2c1CN(C(=O)C1C3CNCC31)C2)c1cc(N)cc(C(F)(F)F)c1 (stereo partly drawn) [Example 266] | > 1000 nM | < 400 nM | < 1000 nM | –
26 | COC1(C(=O)N2Cc3nc(Cl)nc(N[C@H](C)c4cccc5c4OCC5(F)F)c3C2)CCOCC1 [Example 490] | < 1000 nM | < 400 nM | < 1000 nM | –
27 | C[C@@H](Nc1nc(Cl)nc2c1CN(C(=O)N1CCNC(=O)C1)C2)c1cccc(C(F)(F)F)c1 [Example 376] | < 1000 nM | < 400 nM | < 1000 nM | –
28 | C[C@@H](Nc1nc(Cl)nc2c1CN(C(=O)N1C[C@H]3C[C@@H]1CN3)C2)c1cc(N)cc(C(F)(F)F)c1 [Example 360] | > 1000 nM | < 400 nM | < 1000 nM | –
29 | C[C@@H](Nc1nc(Cl)nc2c1CC(N1CC3(COC3)C1)CC2)c1cc(N)cc(C(F)(F)F)c1 (stereo partly drawn) [Example 433] | < 1000 nM | < 400 nM | < 1000 nM | –
30 | C[C@@H](Nc1nc(Cl)nc2c1CN(C(=O)C(C)(C)C)C2)c1cc(N)cc(C(F)(F)F)c1 [Example 274] | < 1000 nM | < 400 nM | < 1000 nM | –
31 | C[C@@H](Nc1nc(Cl)nc2c1CN(S(=O)(=O)C1CC1)C2)c1cc(N)cc(C(F)(F)F)c1 [Example 52] | < 1000 nM | < 400 nM | < 1000 nM | –
32 | C[C@@H](Nc1nc(Cl)nc2c1CN(C(=O)N1CCNCC(F)(F)C1)C2)c1cccc(C(F)F)c1F [Example 402] | < 1000 nM | < 400 nM | < 1000 nM | –
33 | Cc1nc2c(c(N[C@H](C)c3cc(N)cc(C(F)(F)F)c3)n1)CN(S(=O)(=O)C1CCOCC1)C2 [Example 47, N-[(1R)-1-[3-amino-5-(trifluoromethyl)phenyl]ethyl]-2-methyl-6-tetrahydropyran-4-ylsulfonyl-5,7-dihydropyrrolo[3,4-d]pyrimidin-4-amine] | < 1000 nM | < 400 nM | < 1000 nM | –
34 | C[C@@H](Nc1nc(Cl)nc2c1CN(C(=O)N1CC3CCC1CN3C)C2)c1cccc(C(F)F)c1F (stereo partly drawn) [Example 415] | < 1000 nM | < 400 nM | < 1000 nM | –
35 | C[C@@H](Nc1nc(Cl)nc2c1CN(C(=O)C1(CO)COC1)CC2)c1cc(N)cc(C(F)(F)F)c1 [Example 225] | < 1000 nM | < 400 nM | < 1000 nM | –
